# “And” between values parts separate entries of the source, which are not always exact repeats. Equal entries are not always repeated.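 How tested: cells in 96-well plates exposed to compound for 48 hours at five concentrations. GI50 is the concentration that inhibits growth by half. Definition used: TGI = concentration required for complete inhibition of growth.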
# How the values were obtained:
# Test in all cases: NCI-60 cell line screen, 48 h
# BT-549 breast = tested on: BT-549 breast
# DU-145 prostate = tested on: DU-145 prostate
# IGROV1 ovarian = tested on: IGROV1 ovarian
# K-562 leukemia = tested on: K-562 leukemia
# M14 melanoma = tested on: M14 melanoma
# MALME-3M melanoma = tested on: MALME-3M melanoma
# MDA-MB-435 = tested on: MDA-MB-435
# MDA-N = tested on: MDA-N
# OVCAR-3 ovarian = tested on: OVCAR-3 ovarian
# SW-620 colon = tested on: SW-620 colon
SMILES,TGI (BT-549 breast),TGI (DU-145 prostate),TGI (IGROV1 ovarian),TGI (K-562 leukemia),TGI (M14 melanoma),TGI (MALME-3M melanoma),TGI (MDA-MB-435),TGI (MDA-N),TGI (OVCAR-3 ovarian),TGI (SW-620 colon),GI50 (IGROV1 ovarian),GI50 (K-562 leukemia),GI50 (MALME-3M melanoma),GI50 (MDA-MB-435),GI50 (OVCAR-3 ovarian),GI50 (SW-620 colon)
Cc1ccc(C(=O)c2[nH]c(Nc3cc(C)ccn3)c(C(=S)Nc3ccccc3)c2N)cc1,> 100 µM,> 100 µM,> 100 µM,> 100 µM,> 100 µM,> 100 µM,> 100 µM,> 100 µM,> 100 µM,> 100 µM,–,–,–,–,–,–
COc1ccc(N2C(=O)C3c4[nH]c5ccccc5c4C4C(C)CCCC4C3C2=O)cc1 (stereo unspecified),> 33.6 µM,> 100 µM,> 100 µM,> 100 µM,> 100 µM,52.6 µM,> 30.2 µM,18.3 µM,> 100 µM,> 100 µM,–,–,–,–,–,–
Cc1cn(C2CC(OC(c3ccccc3)(c3ccccc3)c3ccccc3)C(COC(c3ccccc3)(c3ccccc3)c3ccccc3)O2)c(=O)[nH]c1=O (stereo unspecified),98.4 µM,> 100 µM,> 100 µM,> 100 µM,> 100 µM,> 100 µM,> 100 µM,> 100 µM,> 100 µM,> 100 µM,–,–,–,–,–,–
CCOC(=O)c1ccc(C(=O)/C(C(=O)OC(C)(C)C)=C2\CCCN2C)n1C,> 100 µM,> 100 µM,> 100 µM,> 100 µM,> 100 µM,> 100 µM,> 100 µM,> 100 µM,> 100 µM,> 100 µM,–,–,–,–,–,–
COC(=O)C(CCSC)NC(=O)CSc1nnc(COc2ccc(Cl)cc2)n1-c1ccccc1 (stereo unspecified),37.4 µM,33 µM,31.1 µM,69.9 µM,33.5 µM,37.1 µM,34.3 µM,34.1 µM,5.37 µM,49.7 µM,–,–,–,–,–,–
Cc1ccc(-n2cc(-c3ccc(Cl)cc3)c3c2N=CN2NC(c4ccco4)=NC32)cc1 (stereo unspecified),99.2 µM,> 100 µM,72.3 µM,> 100 µM,> 100 µM,> 100 µM,> 100 µM,> 100 µM,73.8 µM,> 100 µM,–,–,–,–,–,–
O=CN(O)CC(=O)O,> 100 µM,> 100 µM,> 100 µM,> 100 µM,> 100 µM,> 100 µM,> 100 µM,> 100 µM,> 100 µM,> 100 µM,–,–,–,–,–,–
COc1cc(/C=C/C(=O)O)ccc1OS(=O)(=O)O,> 100 µM,> 100 µM,> 100 µM,> 100 µM,> 100 µM,> 100 µM,> 100 µM,> 100 µM,> 100 µM,> 100 µM,–,–,–,–,–,–
COC(=O)c1sc2ncc3c(c2c1N)CC(C)CC3 (stereo unspecified),> 100 µM,> 100 µM,> 100 µM,> 100 µM,> 100 µM,> 100 µM,> 100 µM,> 100 µM,> 100 µM,> 100 µM,–,–,–,–,–,–
CC1OC(n2cc(F)c(=O)[nH]c2=O)C(O[Si](C)(C)C(C)(C)C)C1O[Si](C)(C)C(C)(C)C (stereo unspecified),26.1 µM,26.8 µM,27.3 µM,36.1 µM,45 µM,28.5 µM,34.5 µM,29.3 µM,37.3 µM,28.6 µM,–,–,–,–,–,–
CCN(CC(=O)O)CC(=O)O,> 100 µM,> 100 µM,> 100 µM,> 100 µM,> 100 µM,> 100 µM,> 100 µM,> 100 µM,> 100 µM,> 100 µM,–,–,–,–,–,–
CC(O)(C(=O)N(O)c1ccc(Cl)cc1)c1ccc(Cl)cc1 (stereo unspecified),61.5 µM,> 100 µM,> 100 µM,43.1 µM,> 100 µM,> 100 µM,87.8 µM,> 100 µM,72.8 µM,> 100 µM,–,–,–,–,–,–
CC1(C)[C@@H]2C[C@H]1c1cnc(-c3ccccn3)cc1[C@H]2C(O)[C@@H]1c2cc(-c3ccccn3)ncc2[C@H]2C[C@@H]1C2(C)C (stereo partly specified),3.8 µM,3.47 µM,6.98 µM,> 52 µM,1.85 µM,21.6 µM,> 38.5 µM,11 µM,1.77 µM,47.1 µM,–,–,–,–,–,–
CC(C)(C)c1ccc2c(c1)OCc1n[nH]c(n1)COc1cc(C(C)(C)C)ccc1OCCOCCO2,10.9 µM,20.6 µM,23.2 µM,> 100 µM,13.5 µM,7.62 µM,11.5 µM,12.3 µM,7.47 µM,13.1 µM,–,–,–,–,–,–
CCOC(=O)Cc1nn2c(=O)cc(C)nc2s1,> 100 µM,> 100 µM,> 100 µM,> 100 µM,> 100 µM,> 100 µM,> 100 µM,> 100 µM,> 100 µM,> 100 µM,–,–,–,–,–,–
COn1cc(CO)c2ccccc21,> 100 µM,> 100 µM,> 100 µM,> 100 µM,> 100 µM,> 100 µM,> 100 µM,> 100 µM,> 100 µM,> 100 µM,–,–,–,–,–,–
Cc1ccc([N+](=O)[O-])c2c(NCCCN(C)C)ccnc12,> 100 µM,> 100 µM,91.8 µM,> 100 µM,> 100 µM,44.8 µM,45.1 µM,98.4 µM,> 93.1 µM,> 100 µM,–,–,–,–,–,–

SMILES,TGI (BT-549 breast),TGI (DU-145 prostate),TGI (IGROV1 ovarian),TGI (K-562 leukemia),TGI (M14 melanoma),TGI (MALME-3M melanoma),TGI (MDA-MB-435),TGI (MDA-N),TGI (OVCAR-3 ovarian),TGI (SW-620 colon),GI50 (IGROV1 ovarian),GI50 (K-562 leukemia),GI50 (MALME-3M melanoma),GI50 (MDA-MB-435),GI50 (OVCAR-3 ovarian),GI50 (SW-620 colon)
COc1cc2c(cc1O)CC[n+]1cc3c(OC)c(OC)ccc3cc1-2,> 100 µM,> 100 µM,> 100 µM,> 100 µM,> 100 µM,> 100 µM,> 100 µM,> 100 µM,> 100 µM,> 100 µM,–,–,–,–,–,–
N/C(CSCCSC/C(N)=N/O)=N\O,> 100 µM,> 100 µM,> 100 µM,> 100 µM,> 100 µM,> 100 µM,> 100 µM,> 100 µM,> 100 µM,> 100 µM,–,–,–,–,–,–
CC(C)Cc1c(C#N)c(C#N)c(N)n1Cc1ccccc1,> 100 µM,> 100 µM,> 100 µM,> 100 µM,> 100 µM,> 100 µM,> 100 µM,> 100 µM,> 100 µM,> 100 µM,–,–,–,–,–,–
CC[P+](C#Cc1ccccc1)(c1ccccc1)c1ccccc1,3.43 µM,10.4 µM,11.9 µM,0.74 µM,3.56 µM,4.19 µM,2.83 µM,3.44 µM,4.55 µM,10.8 µM,–,–,–,–,–,–
OCC1OC(O[C@H]2CN3[C@H](O)[C@@H](O)[C@H](O)[C@H]3C2O)C(O)C(O)C1O (stereo partly specified),> 100 µM,> 100 µM,> 100 µM,> 100 µM,> 100 µM,> 100 µM,> 100 µM,> 100 µM,> 100 µM,> 100 µM,–,–,–,–,–,–
CCOC1NC(=O)c2ccccc21 (stereo unspecified),> 100 µM,> 100 µM,> 100 µM,> 100 µM,> 100 µM,> 100 µM,> 100 µM,> 100 µM,> 100 µM,> 100 µM,–,–,–,–,–,–
C[C@@H]1C(=O)CC2(O)[C@@]13C[C@@H](OC(=O)[C@@H]3O)[C@@H](C)[C@@]21COC1=O (stereo partly specified),> 100 µM,> 100 µM,> 100 µM,> 100 µM,> 100 µM,> 100 µM,> 100 µM,> 100 µM,> 100 µM,> 100 µM,–,–,–,–,–,–
Nc1n[nH]c2ccccc12,> 100 µM,> 100 µM,> 100 µM,> 100 µM,> 100 µM,> 100 µM,> 100 µM,> 100 µM,> 100 µM,> 100 µM,–,–,–,–,–,–
O=C1NN=C(c2c[nH]c3ccccc23)CC1NCc1ccccc1 (stereo unspecified),> 100 µM,> 100 µM,> 100 µM,> 100 µM,> 100 µM,> 100 µM,> 100 µM,> 100 µM,> 100 µM,> 100 µM,–,–,–,–,–,–
O=C(CN=C(CN(c1ccccc1)c1ccccc1)Oc1c(Cl)cc(Cl)cc1Cl)n1cnc2ccccc21,> 100 µM,> 100 µM,> 100 µM,> 100 µM,> 100 µM,> 100 µM,> 100 µM,> 100 µM,> 100 µM,> 100 µM,–,–,–,–,–,–
COC(=O)C1=C(C(=O)OC)C2(C)CCC(=O)C1O2 (stereo unspecified),> 10 µM,> 10 µM,> 10 µM,> 10 µM,> 10 µM,> 10 µM,> 10 µM,> 10 µM,> 10 µM,> 10 µM,–,–,–,–,–,–
COC(=O)C1=C(C)N2[C@H](C(=O)O)CS[C@@]2(C)[C@H](C(=O)OC)[C@H]1c1cccc([N+](=O)[O-])c1,> 100 µM,> 100 µM,> 100 µM,> 100 µM,> 100 µM,> 100 µM,> 100 µM,> 100 µM,> 100 µM,> 100 µM,–,–,–,–,–,–
O=C(/C=C1\C[C@H]2C=Nc3ccccc3C(=O)N2C1)NCCCCCNC(=O)/C=C1\C[C@H]2C=Nc3ccccc3C(=O)N2C1,26 µM,27.4 µM,23.1 µM,> 51.9 µM,12.1 µM,7.09 µM,19 µM,21.5 µM,14.2 µM,5.93 µM,–,–,–,–,–,–
O=[N+]([O-])c1ccc2nc3c(nc2c1)-c1c2ccccc2cc2cccc-3c12,17.9 µM,> 100 µM,> 28.4 µM,> 85.9 µM,> 91.7 µM,76.5 µM,> 83.9 µM,47.9 µM,51.7 µM,> 100 µM,–,–,–,–,–,–
O=C(O)c1cc2ccccc2c(S(=O)(=O)O)c1O,> 100 µM,> 100 µM,> 100 µM,> 100 µM,> 100 µM,> 100 µM,> 100 µM,> 100 µM,> 100 µM,> 100 µM,–,–,–,–,–,–
COCC(=O)OC1CCn2c1nc1c2C(=O)C(C)=C(NC(C)=O)C1=O (stereo unspecified),24.4 µM,22.2 µM,32.7 µM,11.9 µM,21.7 µM,4.94 µM and 6.11 µM,3.69 µM and 3.42 µM,3.39 µM and 3.4 µM,5.23 µM and 4.82 µM,19.8 µM,4.3 µM,3.23 µM,2.37 µM,2.17 µM,1.9 µM,3.43 µM

# Source: PubChem BioAssay (NCI)
